The supplement of paper PMC10331698
± gives the standard deviation of the averaged measurements.

How the values were obtained:
Assay in all cases: level (log10 ratio to DMSO vehicle control); higher = higher biomarker level / cell amount than vehicle control
Settings in all cases: in DMSO
[1] = compound: FC(F)(F)C(F)(F)C(F)(F)C(F)(F)C(F)(F)C(F)(F)C(F)(F)C(F)(F)CCS [2-(Perfluorooctyl)ethanthiol]
Procedure: (§1)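 BioMAP Diversity Plus panel of 12 human primary cell co-culture systems (3C, 4H, LPS, SAg, BT, BF4T, BE3C, CASM3C, HDF3CGF, KF3CT, MyoF, Mphg). Compounds were added 1 h before stimulation and left for 24 h (MyoF 48 h; BT 72 h for soluble read-outs or 6 d for IgG). Biomarkers were read by ELISA, cytotoxicity by SRB, PBMC viability and proliferation by Alamar Blue. Each well value was divided by the mean of 8 DMSO control wells on the same plate and log10 transformed; duplicate blinded samples were tested at 4 concentrations.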

[2] = compound: O=C(O)C(F)(F)C(F)(F)C(F)F [4H-Perfluorobutanoic acid]
Procedure: as §1

[3] = compound: CCN(CCO)S(=O)(=O)C(F)(F)C(F)(F)C(F)(F)C(F)(F)C(F)(F)C(F)(F)C(F)(F)C(F)(F)F [N-Ethyl-N-(2-hydroxyethyl)perfluorooctanesulfonamide]
Procedure: as §1

[4] = compound: C=CC(=O)OCC(F)(F)C(F)(F)C(F)(F)C(F)(F)C(F)(F)C(F)(F)C(F)(F)F [1H,1H-Perfluorooctyl acrylate]
Procedure: as §1

[5] = compound: FC(F)(F)C(F)(C(F)(F)F)C(F)(F)C(F)(F)CC1CO1 [3-(Perfluoro-3-methylbutyl)-1,2-propenoxide]
Procedure: as §1

[6] = compound: O=C(O)C(F)(F)C(F)(F)C(F)(F)C(F)(F)C(F)(F)C(F)(F)C(F)(F)C(F)F [9-H-Perfluorononanoic acid]
Procedure: as §1

[7] = compound: O=C(O)C(F)(F)OC(F)(F)C(F)(F)OC(F)(F)C(=O)O [Perfluoro-3,6-dioxaoctane-1,8-dioic acid]
Procedure: as §1

[8] = compound: C=C(C)C(=O)OCCC(F)(F)C(F)(F)C(F)(F)C(F)(F)C(F)(C(F)(F)F)C(F)(F)F [(Perfluoro-5-methylhexyl)ethyl 2-methylprop-2-enoate]
Procedure: as §1

| Test System | level (log10) ([1]; 6700 nM) | level (log10) ([1]; 20000 nM) | level (log10) ([2]; 6700 nM) | level (log10) ([2]; 20000 nM) | level (log10) ([2]; 60000 nM) | level (log10) ([3]; 6700 nM) | level (log10) ([3]; 20000 nM) | level (log10) ([4]; 6700 nM) | level (log10) ([4]; 20000 nM) | level (log10) ([4]; 60000 nM) | level (log10) ([5]; 6700 nM) | level (log10) ([5]; 20000 nM) | level (log10) ([6]; 6700 nM) | level (log10) ([6]; 20000 nM) | level (log10) ([6]; 60000 nM) | level (log10) ([7]; 6700 nM) | level (log10) ([7]; 20000 nM) | level (log10) ([7]; 60000 nM) | level (log10) ([8]; 6700 nM) | level (log10) ([8]; 20000 nM) |
| --- | --- | --- | --- | --- | --- | --- | --- | --- | --- | --- | --- | --- | --- | --- | --- | --- | --- | --- | --- | --- |
| BF4T:IL-1alpha | -0.036 ± 0.018 | -0.023 ± 0.017 | -0.02 ± 0.0014 | -0.019 ± 0.014 | 0.0085 ± 0.012 | 0.008 ± 0.016 | -0.0175 ± 0.015 | -0.0075 ± 0.00071 | 0.0045 ± 0.0021 | -0.0125 ± 0.013 | -0.016 ± 0.024 | 0.0185 ± 0.013 | 0.0005 ± 0.00071 | -0.019 ± 0.0099 | 0.0055 ± 0.044 | -0.004 ± 0.0099 | 0.0085 ± 0.0035 | 0.006 ± 0.021 | -0.0155 ± 0.021 | -0.014 ± 0.03 |
| BF4T:Keratin 8/18 | -0.0415 ± 0.0064 | -0.0615 ± 0.03 | -0.027 ± 0.027 | -0.0025 ± 0.013 | 0.0035 ± 0.021 | -0.002 ± 0.0014 | -0.0005 ± 0.0021 | 0.02 ± 0.0014 | 0.0005 ± 0.035 | -0.0035 ± 0.053 | 0.01 ± 0.023 | -0.002 ± 0.035 | -0.007 ± 0.052 | 0.0065 ± 0.044 | 0.0005 ± 0.0035 | -0.0075 ± 0.022 | -0.008 ± 0.0014 | 0.0025 ± 0.019 | -0.024 | -0.0115 ± 0.0078 |
| BF4T:MMP-1 | 0.003 ± 0.0085 | 0.01 ± 0.0099 | -0.0075 ± 0.019 | 0 ± 0.034 | 0.006 ± 0.038 | 0.015 | 0.0095 ± 0.0078 | 0.009 ± 0.021 | 0.0065 ± 0.0092 | 0.006 ± 0.0042 | -0.0115 ± 0.047 | 0.02 ± 0.067 | 0.005 ± 0.021 | -0.0075 ± 0.039 | 0.0925 ± 0.00071 | 0.0075 ± 0.0064 | 0.007 ± 0.027 | 0.0185 ± 0.032 | -0.0205 ± 0.0021 | -0.0095 ± 0.0021 |
| BF4T:MMP-3 | -0.0515 ± 0.0035 | -0.0285 ± 0.015 | -0.0025 ± 0.012 | -0.014 ± 0.02 | -0.007 ± 0.023 | -0.0145 ± 0.025 | 0.0505 ± 0.023 | -0.004 ± 0.0014 | 0.0205 ± 0.019 | 0.036 ± 0.0071 | 0.0005 ± 0.018 | -0.011 ± 0.0028 | -0.0115 ± 0.03 | -0.0025 ± 0.00071 | 0.075 ± 0.0071 | -0.001 ± 0.0028 | -0.004 ± 0.0028 | 0.031 ± 0.025 | -0.0975 ± 0.022 | -0.057 ± 0.041 |
| BF4T:MMP-9 | -0.047 ± 0.0099 | -0.057 ± 0.013 | -0.018 ± 0.028 | -0.0245 ± 0.036 | -0.008 ± 0.038 | -0.012 ± 0.014 | -0.032 ± 0.0014 | 0.0065 ± 0.028 | 0.0035 ± 0.016 | 0.015 ± 0.033 | 0.0085 ± 0.005 | -0.0125 ± 0.026 | -0.073 ± 0.045 | -0.039 ± 0.0071 | -0.004 ± 0.0014 | -0.021 ± 0.0057 | -0.0135 ± 0.005 | 0.02 ± 0.017 | -0.036 ± 0.05 | -0.007 ± 0.038 |
| BF4T:PAI-I | -0.0175 ± 0.0064 | -0.0255 ± 0.005 | 0.0025 ± 0.013 | -0.01 ± 0.0042 | 0.0105 ± 0.035 | 0.014 ± 0.0014 | -0.0105 ± 0.00071 | 0.008 ± 0.0014 | 0 ± 0.0014 | 0.0025 ± 0.013 | -0.0045 ± 0.013 | 0.0005 ± 0.016 | -0.099 ± 0.0028 | -0.0915 ± 0.0021 | -0.114 ± 0.0099 | 0.0085 ± 0.013 | 0.007 ± 0.0099 | 0.0095 ± 0.012 | -0.01 ± 0.018 | -0.023 ± 0.0057 |
| BF4T:SRB | -0.01 ± 0.013 | -0.016 ± 0.0014 | 0.0005 ± 0.0021 | -0.008 ± 0.0057 | -0.006 ± 0.0042 | -0.016 ± 0.0071 | -0.027 ± 0.018 | -0.003 | -0.0055 ± 0.011 | 0.002 ± 0.025 | 0.0015 ± 0.0035 | -0.0035 ± 0.00071 | -0.018 ± 0.0085 | -0.018 ± 0.0071 | -0.016 ± 0.0014 | -0.0115 ± 0.00071 | -0.014 ± 0.0014 | 0.003 ± 0.018 | -0.016 ± 0.011 | -0.007 ± 0.025 |
| BF4T:tPA | 0.006 ± 0.034 | -0.0195 ± 0.022 | -0.002 ± 0.037 | 0.003 ± 0.028 | 0.0475 ± 0.022 | 0.0595 ± 0.0064 | 0.067 ± 0.0028 | -0.0045 ± 0.013 | 0.0025 ± 0.0021 | -0.0075 ± 0.025 | 0.0135 ± 0.00071 | 0.0135 ± 0.0021 | -0.094 ± 0.014 | -0.128 ± 0.012 | -0.122 ± 0.019 | -0.003 ± 0.0028 | -0.024 ± 0.018 | 0.0155 ± 0.059 | -0.002 ± 0.0057 | -0.037 ± 0.031 |
| BF4T:uPA | -0.031 ± 0.011 | -0.0285 ± 0.039 | 0.002 ± 0.016 | 0.019 ± 0.0014 | 0.0105 ± 0.0021 | 0.008 ± 0.0028 | 0.0055 ± 0.012 | -0.002 ± 0.0014 | 0.0035 ± 0.00071 | 0.001 ± 0.0042 | -0.0115 ± 0.0078 | -0.0325 ± 0.0078 | -0.0085 ± 0.016 | -0.0195 ± 0.012 | 0.001 ± 0.013 | -0.007 ± 0.013 | -0.015 ± 0.0028 | 0.0035 ± 0.03 | -0.0295 ± 0.0064 | -0.063 ± 0.0014 |
| BT:B cell Proliferation | -0.007 ± 0.0057 | 0.038 ± 0.0042 | 0.016 ± 0.0099 | 0.0055 ± 0.019 | 0.0065 ± 0.036 | 0.0165 ± 0.005 | -0.0405 ± 0.059 | -0.0405 ± 0.05 | -0.0195 ± 0.056 | -0.052 ± 0.048 | -0.002 ± 0.025 | 0.017 ± 0.0099 | 0.0245 ± 0.0021 | 0.0495 ± 0.00071 | 0.108 ± 0.0028 | 0.0095 ± 0.016 | -0.009 ± 0.023 | 0.0035 ± 0.0035 | -0.027 ± 0.011 | 0.001 ± 0.017 |
| BT:PBMC Cytotoxicity | -0.0395 ± 0.012 | 0.02 ± 0.0028 | -0.0175 ± 0.018 | -0.0075 ± 0.0035 | -0.002 ± 0.047 | -0.003 ± 0.027 | -0.0615 ± 0.0035 | -0.032 ± 0.071 | -0.0405 ± 0.056 | -0.092 ± 0.068 | -0.0055 ± 0.023 | 0.005 ± 0.013 | -0.009 ± 0.055 | 0.0435 ± 0.025 | 0.103 | -0.018 ± 0.057 | -0.0495 ± 0.0064 | -0.0125 ± 0.012 | 0.004 ± 0.0057 | 0.007 ± 0.021 |
| BT:Secreted IgG | 0.02 ± 0.0071 | 0.016 ± 0.0014 | 0.0315 ± 0.036 | 0.0205 ± 0.03 | 0.014 ± 0.041 | -0.002 ± 0.016 | -1.16 ± 0.3 | -0.0085 ± 0.015 | -0.0455 ± 0.057 | -0.132 ± 0.016 | -0.007 ± 0.064 | 0.016 ± 0.09 | 0.038 ± 0.0071 | -0.011 ± 0.031 | 0.0485 ± 0.019 | 0.032 ± 0.025 | 0.0095 ± 0.005 | -0.0365 ± 0.036 | -0.0085 ± 0.044 | -0.023 ± 0.0085 |
| BT:sIL-2 | 0.017 ± 0.016 | -0.0155 ± 0.071 | 0.0065 ± 0.054 | -0.0275 ± 0.14 | -0.056 ± 0.017 | -0.046 ± 0.03 | -0.339 ± 0.076 | -0.0455 ± 0.11 | 0.031 ± 0.028 | -0.0025 ± 0.042 | -0.0405 ± 0.042 | 0.071 ± 0.072 | -0.0245 ± 0.057 | 0.006 ± 0.05 | 0.0195 ± 0.032 | 0.004 ± 0.027 | -0.017 ± 0.05 | -0.002 ± 0.041 | -0.0185 ± 0.025 | -0.0245 ± 0.039 |
| BT:sIL-6 | 0.011 ± 0.042 | -0.02 ± 0.041 | -0.008 | -0.046 ± 0.031 | -0.0915 ± 0.026 | 0.078 ± 0.0014 | -0.049 ± 0.054 | -0.088 ± 0.0042 | -0.103 ± 0.031 | -0.242 ± 0.045 | 0.0275 ± 0.043 | -0.0215 ± 0.005 | -0.0315 ± 0.0064 | 0.06 ± 0.064 | -0.0215 ± 0.079 | 0.018 ± 0.013 | -0.007 ± 0.0042 | -0.0375 ± 0.00071 | -0.0095 ± 0.025 | 0.0305 ± 0.073 |
